System: behaviorally-diagnosed psychiatric conditions (DSM categories)
Design: species or system human
Conditions: in vivo
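Throughout, for use code of agent in 301.7 Antisocial Personality Disorder: N marks novel agent found effective in subject subgroups.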
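Throughout, for use code of agent in 301.83 Borderline Personality Disorder: N marks novel agent found effective in subject subgroups.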
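Throughout, for use in 307.50 Eating Disorder NOS: N marks novel agent found effective in subject subgroups.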
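Throughout, for use in 307.51 Bulimia Nervosa: N marks novel agent found effective in subject subgroups.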
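Throughout, for use in 313.81 Oppositional Defiant Disorder: N marks novel agent found effective in subject subgroups.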

Nc1nnc(-c2cccc(Cl)c2Cl)c(N)n1 [LAMOTRIGINE]
N: use in Dementia of the Alzheimer's Type

CC(C)(N)Cc1ccccc1 [PHENTERMINE]
N: use code of agent in 294.9 Cognitive Disorder NOS | use code of agent in 300.4 Dysthymic Disorder | use code of agent in 307.50 Eating Disorder NOS | use code of agent in 312.8 Conduct Disorder | use of agent in DSM category (C/N code)

NC12CC3CC(CC(C3)C1)C2 [AMANTADINE]
N: use code of agent in 312.30 Impulse-Control Disorder NOS | use code of agent in 312.8 Conduct Disorder | use code of agent in 313.81 Oppositional Defiant Disorder | use code of agent in 315.9 Learning Disorder NOS | use code of agent in Attention-Deficit/Hyperactivity Disorder

N[C@@H](Cc1ccccc1)C(=O)O [PHENYLALANINE, reference compound]
N: agent found effective in 299.00 Autistic Disorder | agent found effective in 300.00 Anxiety Disorder NOS | agent found effective in 300.02 Generalized Anxiety Disorder | agent found effective in 300.22 Agoraphobia Without History of Panic Disorder | agent found effective in 300.23 Social Phobia | agent found effective in 300.29 Specific Phobia | agent found effective in 300.3 Obsessive-Compulsive Disorder | agent found effective in 309.81 Posttraumatic Stress Disorder | agent found effective in Panic Disorder | use in Dementia of the Alzheimer's Type

CC(NC(C)(C)C)C(=O)c1cccc(Cl)c1 (stereo not drawn) [BUPROPRION (LONG ACTING)]
N: use code of agent in 301.20 Schizoid Personality Disorder | use code of agent in 301.22 Schizotypal Personality Disorder | use code of agent in 301.4 Obsessive-Compulsive Personality Disorder | use code of agent in 301.50 Histrionic Personality Disorder | use code of agent in 301.6 Dependent Personality Disorder | use code of agent in 301.7 Antisocial Personality Disorder | use code of agent in 301.82 Avoidant Personality Disorder | use code of agent in 301.83 Borderline Personality Disorder | use code of agent in 302.71 Hypoactive Sexual Desire Disorder | use code of agent in 307.42 Primary Insomnia | use code of agent in 311 Depressive Disorder NOS | use code of agent in 316 Psychological Factors Affecting Medical Condition, Atypical Asthma | use code of agent in 316 Psychological Factors Affecting Medical Condition, Neurodermatitis | use code of agent in Bipolar I Disorder | use in 294.8 Amnestic Disorder | use in 294.9 Cognitive Disorder NOS | use in 296.89 Bipolar II Disorder | use in 299.80 Pervasive Developmental Disorder NOS | use in 300.00 Anxiety Disorder NOS | use in 300.02 Generalized Anxiety Disorder | use in 300.22 Agoraphobia Without History of Panic Disorder | use in 300.23 Social Phobia | use in 300.29 Specific Phobia | use in 300.3 Obsessive-Compulsive Disorder | use in 301.13 Cyclothymic Disorder | use in 307.1 Anorexia Nervosa | use in 307.50 Eating Disorder NOS | use in 307.51 Bulimia Nervosa | use in 307.9 Communication Disorder NOS | use in 309.21 Separation Anxiety Disorder | use in 309.81 Posttraumatic Stress Disorder | use in 312.30 Impulse-Control Disorder NOS | use in 312.31 Pathological Gambling | use in 312.34 Intermittent Explosive Disorder | use in 312.39 Trichotillomania | use in 312.8 Conduct Disorder | use in 313.81 Oppositional Defiant Disorder | use in 315.9 Learning Disorder NOS | use in Attention-Deficit/Hyperactivity Disorder | use in Panic Disorder | use of the agent in the diagnostic category (C = common use; N = novel use from rEEG features)

CC(C)CC(N(C)C)C1(c2ccc(Cl)cc2)CCC1 (stereo not drawn) [SILBTRMIN]
N: use code of agent in 312.34 Intermittent Explosive Disorder | use in 307.22 Chronic Motor or Vocal Tic Disorder | use of the agent in the diagnostic category (C = common use; N = novel use from rEEG features)

C[C@H](N)Cc1ccccc1 [DEXEDRINE]
N: use code of agent in 294.9 Cognitive Disorder NOS | use code of agent in 296.90 Mood Disorder NOS | use code of agent in 300.4 Dysthymic Disorder | use code of agent in 301.13 Cyclothymic Disorder | use code of agent in 307.1 Anorexia Nervosa | use code of agent in 307.50 Eating Disorder NOS | use code of agent in 307.51 Bulimia Nervosa | use code of agent in 312.30 Impulse-Control Disorder NOS | use code of agent in 312.31 Pathological Gambling | use code of agent in 312.39 Trichotillomania | use code of agent in 312.8 Conduct Disorder | use code of agent in 313.81 Oppositional Defiant Disorder | use code of agent in 315.9 Learning Disorder NOS

N[C@@H]1C[C@H]1c1ccccc1 [PARNATE, reference compound]
N: use code of agent in 301.20 Schizoid Personality Disorder | use code of agent in 301.4 Obsessive-Compulsive Personality Disorder | use code of agent in 301.50 Histrionic Personality Disorder | use code of agent in 301.6 Dependent Personality Disorder | use code of agent in 301.7 Antisocial Personality Disorder | use code of agent in 301.82 Avoidant Personality Disorder | use code of agent in 301.83 Borderline Personality Disorder | use code of agent in 302.71 Hypoactive Sexual Desire Disorder | use code of agent in 307.42 Primary Insomnia | use code of agent in 311 Depressive Disorder NOS | use code of agent in 316 Psychological Factors Affecting Medical Condition, Atypical Asthma | use code of agent in 316 Psychological Factors Affecting Medical Condition, Neurodermatitis | use code of agent in Bipolar I Disorder | use code of agent in Major Depressive Disorder, Recurrent | use code of agent in Major Depressive Disorder, Single Episode | use in 294.9 Cognitive Disorder NOS | use in 296.89 Bipolar II Disorder | use in 296.90 Mood Disorder NOS | use in 299.80 Pervasive Developmental Disorder NOS | use in 300.00 Anxiety Disorder NOS | use in 300.02 Generalized Anxiety Disorder | use in 300.22 Agoraphobia Without History of Panic Disorder | use in 300.23 Social Phobia | use in 300.29 Specific Phobia | use in 300.3 Obsessive-Compulsive Disorder | use in 300.4 Dysthymic Disorder | use in 301.13 Cyclothymic Disorder | use in 307.1 Anorexia Nervosa | use in 307.50 Eating Disorder NOS | use in 307.51 Bulimia Nervosa | use in 309.21 Separation Anxiety Disorder | use in 309.81 Posttraumatic Stress Disorder | use in 312.30 Impulse-Control Disorder NOS | use in 312.31 Pathological Gambling | use in 312.34 Intermittent Explosive Disorder | use in 312.39 Trichotillomania | use in 312.8 Conduct Disorder | use in 313.81 Oppositional Defiant Disorder | use in 315.9 Learning Disorder NOS | use in Attention-Deficit/Hyperactivity Disorder | use in Panic Disorder | use of the agent in the diagnostic category (C = common use; N = novel use from rEEG features)
